# Measured values published in patent US20230060040A1, “USE OF TRANSFERRIN, TRANSFERRIN RECEPTOR AND ANTIBODY THEREOF IN PREPARATION OF ANTI-SARS-CoV-2 DRUG” (KUNMING INSTITUTE OF ZOOLOGY, CHINESE ACADEMY OF SCIENCES, priority 2020, published 2023).
# pEC50: −log10 of the molar value. Several values for one entry are separate records, joined by “and”; a condition that tells them apart may be missing. Identical values can stand only once. Like-named read-outs stand apart in the source and are kept apart here.
# How the values were obtained:
# SARS-CoV-2 [1] = format: cell-based; settings: Vero E6 cells, different concentrations, 48 h
# SARS-CoV-2 [2] = format: cell-based
# SARS-CoV-2 [3] = format: cell-based; settings: read-out: EC50 by qRT-PCR
# SARS-CoV-2 spike protein = SARS-CoV-2 spike protein (Severe acute respiratory syndrome coronavirus 2, UniProt P0DTC2); settings: SPR, spike protein 3.90625-250 nM, immobilized transferrin receptor
substance,measurement,setting,value
"transferrin: main iron-containing plasma single-chain glycoprotein, purchased from Sigma, catalog number T4382",inhibition of SARS-CoV-2 infection,SARS-CoV-2 [1],could inhibit SARS-CoV-2 infection
same,pEC50,SARS-CoV-2 [2]; read-out: EC50 by CPE analysis,6.90
same,pEC50,SARS-CoV-2 [2]; read-out: EC50 calculated by CPE,7.10 and 7.30
same,pEC50,SARS-CoV-2 [3],6.80
"transferrin receptor: transferrin receptor protein purchased from Sino Biological, catalog number 11020-H07H",inhibition of SARS-CoV-2 infection,SARS-CoV-2 [1],could inhibit SARS-CoV-2 infection
same,pEC50,SARS-CoV-2 [2]; read-out: EC50 by CPE analysis,7.10
same,binding of SARS-CoV-2 spike protein to transferrin receptor,SARS-CoV-2 spike protein,strong binding capacity
same,pEC50,SARS-CoV-2 [3],7.03 and 7.30
